Data as given in ChEMBL document CHEMBL5532754, “Discovery of aurones bearing two amine functionalities as SHIP2 inhibitors with insulin-sensitizing effect in rat myotubes” (RSC Med Chem, 2024).
Where a name gives a salt, the structure may show the parent alone. The source made the active and inactive calls. The calls are words filed in the database; no cut-off is given here.

Assays:
[1] = Thiol (sulfhydryl) reactivity of compound assessed as change in absorbance at 200 uM at pH 7.4 aqueous buffer measured upto 24 hrs in presence of DTT; type: ADME; settings: pH 7.4, 24 h
L6 [2] = test: Induction of glucose uptake in serum-starved rat L6 myotubes at 20 uM by luminescence based microplate reader analysis; type: functional, cell-based
[3] = target: T1, Phosphatidylinositol 3,4,5-trisphosphate 5-phosphatase 2 (Rattus norvegicus) (UniProt Q9WVR3); test: Inhibition of SHIP2 in serum-starved rat L6 myotubes assessed as increase in phosphorylated Akt to total Akt level at 20 to 40 uM incubated for 24 hrs by ELISA; type: cell-based; settings: dose 20-40 µM
T1 sequence (whole entry): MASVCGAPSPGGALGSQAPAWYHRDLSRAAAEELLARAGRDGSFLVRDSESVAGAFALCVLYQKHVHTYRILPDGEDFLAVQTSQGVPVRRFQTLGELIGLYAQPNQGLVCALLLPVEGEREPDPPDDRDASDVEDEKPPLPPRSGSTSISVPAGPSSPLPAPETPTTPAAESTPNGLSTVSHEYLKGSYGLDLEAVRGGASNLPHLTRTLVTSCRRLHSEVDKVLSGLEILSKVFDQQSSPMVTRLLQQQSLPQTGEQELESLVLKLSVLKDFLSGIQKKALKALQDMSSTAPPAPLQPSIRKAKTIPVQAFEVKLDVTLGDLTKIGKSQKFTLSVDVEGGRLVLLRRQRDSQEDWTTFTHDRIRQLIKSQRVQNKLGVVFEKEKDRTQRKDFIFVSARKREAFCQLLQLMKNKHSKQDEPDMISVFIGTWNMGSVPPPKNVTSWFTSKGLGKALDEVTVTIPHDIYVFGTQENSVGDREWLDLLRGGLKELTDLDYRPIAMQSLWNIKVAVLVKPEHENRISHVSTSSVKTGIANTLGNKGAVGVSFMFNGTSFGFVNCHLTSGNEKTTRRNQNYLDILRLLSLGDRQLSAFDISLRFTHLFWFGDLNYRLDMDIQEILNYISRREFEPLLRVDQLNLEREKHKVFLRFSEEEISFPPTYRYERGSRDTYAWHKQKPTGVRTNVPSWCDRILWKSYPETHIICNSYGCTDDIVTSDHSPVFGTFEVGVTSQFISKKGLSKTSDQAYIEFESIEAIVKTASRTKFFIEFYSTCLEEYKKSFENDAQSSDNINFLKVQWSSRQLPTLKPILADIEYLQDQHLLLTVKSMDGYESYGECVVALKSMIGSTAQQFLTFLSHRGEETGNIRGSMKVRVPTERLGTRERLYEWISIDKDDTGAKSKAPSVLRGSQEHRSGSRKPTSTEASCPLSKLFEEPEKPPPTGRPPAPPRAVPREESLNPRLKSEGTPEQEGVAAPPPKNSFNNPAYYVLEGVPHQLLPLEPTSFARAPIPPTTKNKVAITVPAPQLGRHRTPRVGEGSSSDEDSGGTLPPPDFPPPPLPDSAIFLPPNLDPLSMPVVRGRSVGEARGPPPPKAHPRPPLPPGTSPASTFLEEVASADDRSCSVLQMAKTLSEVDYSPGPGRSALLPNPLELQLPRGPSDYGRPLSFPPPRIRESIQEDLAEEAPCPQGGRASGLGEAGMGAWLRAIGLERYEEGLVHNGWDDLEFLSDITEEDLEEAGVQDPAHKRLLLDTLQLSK

L6 [4] = test: Induction of glucose uptake in serum-starved rat L6 myotubes at 2 mM by luminescence based microplate reader analysis; type: functional, cell-based
L6 [5] = test: Insulin sensitizing activity in rat L6 myotubes assessed as increase in glucose uptake by measuring fold change at 2 mM preincubated with compound for 18 hrs followed by insulin addition and measured after 15 mins by luminescence based microplate reader analysis; type: functional; settings: time 18.25 hrs
[6] = Thiol (sulfhydryl) reactivity of compound assessed as change in absorbance at 200 uM at pH 7.4 aqueous buffer measured at 1 to 24 hrs in presence of DTT; type: ADME; settings: pH 7.4, 200 µM, time 1-24 hrs
[7] = Apparent permeability of the compound across apical to basolateral side in human Caco-2 cells at 30 uM incubated for 60 mins by LC analysis; type: ADME, cell-based

Row | SMILES | Activity [1] | Activity (L6 [2]) | inhibition [3] | Activity (L6 [4]) | fold change (FC) (L6 [5]) | Activity [6] | Papp A→B at 1 h, 30 µM [7]
1 | CN(C)CCCn1cc(/C=C2\Oc3cc(OCCN4CCCCC4)ccc3C2=O)c2ccccc21 | Not Active | inactive | Active |  |  |  | 
2 | CN(C)C(=N)NC(=N)N [METFORMIN] |  |  |  | inactive | 1.6 |  | 
3 | O=C1/C(=C/c2cn(CCN3CCOCC3)c3ccccc23)Oc2cc(OCCN3CCCCC3)ccc21 | Not Active | inactive | Active |  |  |  | 
4 | COC(=O)/C=C/C(=O)OC [DIMETHYL FUMARATE] |  |  |  |  |  | Active | 
5 | O=C1/C(=C/c2cn(CCN3CCCCC3)c3ccccc23)Oc2cc(OCCN3CCCCC3)ccc21 | Not Active | inactive | Active |  |  |  | 25.3 ×10⁻⁶ cm/s
